Literature values, collected in patent publication US12728103B2, “Pharmaceutical composition comprising mitotane administered orally for treatment of adrenocortical carcinoma and Cushing's syndrome” (priority 2019, dated 2026).

concentration in fat relative to plasma (accumulation in fat): ~200 times | product found in the faeces in an unmetabolized form (humans, conventional tablet): 60% | treatment time to reach the effective plasma concentration (patients, average): 3 months
Compound: Clc1ccc(C(c2ccccc2Cl)C(Cl)Cl)cc1 (centres unmarked) [Mitotane, ortho,para'dichloro-diphenyl-dichloroethane]
mitotaemia at which neurological disorders (ataxia, depressive syndrome) occur (patients): exceeds 20 mg/L | plasma concentration to be reached to be effective (patients): at least 14 mg/L
